Biological target: T1, human CaMAP FKBP38 (Homo sapiens, UniProt Q14318)
T1 construct: made in house; host or cells: E. coli Rosetta cells (pET28a)
Test: Inhibition of PPIase activity of calmodulin-activated CaMAP FKBP38 (isomer-specific proteolysis with chymotrypsin)
Format: biochemical
Settings: 0.5 μM FKBP38, 0.5 μM calmodulin, 5 mM calcium chloride; substrate Suc-Ala-Phe-Pro-Phe-NHNp; read-out: IC50 value (inhibitor concentration against detected enzyme activity)
Procedure: The human CaMAP FKBP38 (synonyms: FKBP8_HUMAN; Swiss-Prot-No.: Q14318) was produced molecular-biologically, as described in Example 9, and stored in aliquots of 100 μl with a protein concentration of 0.83 mg/ml at −80° C. Just before measuring the activity, one of these aliquots was thawed and subsequently stored at 4° C. Furthermore, commercially available calmodulin isolated from bovine brain (Sigma; purchase order no.: P2277), which had been stored at −80° C., was thawed just before measuring the activity and stored at 4° C. Suc-Ala-Phe-Pro-Phe-pNA (Bachem; purchase order no.: L-1400) was used as CaMAP substrate. Alpha-chymotrypsin isolated from bovine pancreas (Merck KG; purchase order no.: 102307) was used as isomer specific auxiliary enzyme. The following working solutions were prepared just before measuring and stored at 4° C.: • solution A: 55 mM HEPES buffer, pH 7.8; 1 mM DTT, 0.5% glycerol • solution B: 20 mg of the peptide substrate dissolved in 1 ml DMSO • solution C: 20 mg chymotrypsin dissolved in 200 μl of solution A • solution D: FKBP38 ([…], diluted in solution A) • solution E: calmodulin (300 μM, diluted in solution A) • solution F: calcium chloride (1 M in solution A)
For the kinetic determination of CaMAP activity, a computer assisted diode-array spectrometer (Hewlett Packard) with a cuvette temperature of 4° C. is used. […]

- IC50: ~4.3 µM
SMILES: C=CC[C@@H]1/C=C(\C)C[C@H](C)C[C@H](OC)[C@H]2O[C@@](O)(C(=O)C(=O)N3CCCC[C@H]3C(=O)O[C@H](/C(C)=C/[C@@H]3CC[C@@H](O)[C@H](OC)C3)[C@H](C)[C@@H](O)CC1=O)[C@H](C)C[C@@H]2OC [FK506]
